The source of these data is patent US5677336A, “Non-steroid androgen receptor antagonist compounds and methods” (Ligand Pharmaceuticals Incorporated, priority 1993, dated 1997).

Where two headings read alike, the source gives them in different places.

For assay [1] the following is noted: Wall et al., J. Nat. Prod. 1989; cited from earlier work.
In assay [2] the test system is progesterone receptor (PR-TI). Description: Antagonist activity on progesterone receptor, CV-1 cells cotransfected with pRShPR-B altered at Tau-1 (PR-TI). Particulars: Table 2, CV-1 cells PR-TI; for Efficacy, PR-TI (% maximal response): comparable to that found with RU-486; for IC50: read-out: Potency, PR-TI (IC50). The format is cell-based, human. An excerpt: (§1) In the co-transfection assay, a cloned gene for an intracellular receptor (e.g., androgen receptor) is introduced by transfection (a procedure to induce cells to take up foreign genes) into a background cell substantially devoid of endogenous intracellular receptors. This introduced gene directs the recipient cells to make the intracellular receptor protein. A second gene is also introduced (co-transfected) into the same cells in conjunction with the intracellular receptor gene. This second gene functions as a reporter for the transcription-modulating activity of the target intracellular receptor. Thus, the reporter acts as a surrogate for the products normally expressed by a gene under control of the target receptor and its natural hormone. A preferred reporter gene is one which expresses the firefly enzyme luciferase.
(§2) The co-transfection assay can detect small molecule agonists or antagonists of target intracellular receptors. Exposing the cells to an agonist ligand increases reporter activity in the transfected cells. This activity can be conveniently measured, e.g., by increasing luciferase production, which reflects ligand-dependent, intracellular receptor-mediated increases in reporter transcription. To detect antagonists, the co-transfection assay is carried out in the presence of a constant concentration of an agonist (e.g., for androgen receptor, dihydrotestosterone) known to induce a defined reporter signal. Increasing concentrations of a test antagonist will decrease the reporter signal (e.g., luciferase production). The co-transfection assay is therefore useful to detect both agonists and antagonists of specific intracellular receptors. It determines not only whether a compound interacts with a particular intracellular receptor, but whether this interaction mimics (agonizes) or blocks (antagonizes) the effects of the natural regulatory molecules on target gene expression, as well as the specificity and strength of this interaction.
(§3) Co-transfected cells are exposed to a medium to which is added the potential ligand (compound) that is being evaluated. If the candidate compound diffuses into the cell, binds to the receptor, and the resulting receptor complex functions as an agonist, it will subsequently bind to the co-transfected reporter gene and initiate transcription. Typically, the reporter gene is one that expresses luciferase, which is capable of catalyzing a light-emitting reaction with its substrate luciferin. Thus, after cell lysis and the introduction of luciferin, the amount of light produced relative to the concentration of candidate compound used in the assay provides a measure of the potency and efficacy of the compound tested. Antagonist activity is evaluated by adding the candidate ligand and a known agonist to the co-transfected cells.
The specific activity of Compounds A-J was compared relative to their antagonist activity on the human progesterone receptor (PR) utilizing CV-1 cells cotransfected with plasmid pRShPR-B, as altered at the Tau-1 location (e.g., PR-TI)[specifically, hPR-B was excised from the vector pGEM3Z (69 Cell 703 (1992)); the Tau-1 fragment of the gluccocorticoid receptor was inserted into hPR-B at the unique HincII site in the N-terminal region; a Bst EII to BST bI fragment spanning the Tau-1 insertion was then used to replace the corresponding region in pRShPR-B]. […] Potency or IC50 is as reported for AR-wt transfected CV-1 cells.

In the next assay the target is T1, androgen receptor (Homo sapiens, UniProt P10275).
T1 construct: expressed in transfected cells; host or cells: CV-1 (monkey kidney fibroblast) cells, plasmid pRShAR, with reporter plasmid MTV-LUC
T1 sequence (P10275 1-920): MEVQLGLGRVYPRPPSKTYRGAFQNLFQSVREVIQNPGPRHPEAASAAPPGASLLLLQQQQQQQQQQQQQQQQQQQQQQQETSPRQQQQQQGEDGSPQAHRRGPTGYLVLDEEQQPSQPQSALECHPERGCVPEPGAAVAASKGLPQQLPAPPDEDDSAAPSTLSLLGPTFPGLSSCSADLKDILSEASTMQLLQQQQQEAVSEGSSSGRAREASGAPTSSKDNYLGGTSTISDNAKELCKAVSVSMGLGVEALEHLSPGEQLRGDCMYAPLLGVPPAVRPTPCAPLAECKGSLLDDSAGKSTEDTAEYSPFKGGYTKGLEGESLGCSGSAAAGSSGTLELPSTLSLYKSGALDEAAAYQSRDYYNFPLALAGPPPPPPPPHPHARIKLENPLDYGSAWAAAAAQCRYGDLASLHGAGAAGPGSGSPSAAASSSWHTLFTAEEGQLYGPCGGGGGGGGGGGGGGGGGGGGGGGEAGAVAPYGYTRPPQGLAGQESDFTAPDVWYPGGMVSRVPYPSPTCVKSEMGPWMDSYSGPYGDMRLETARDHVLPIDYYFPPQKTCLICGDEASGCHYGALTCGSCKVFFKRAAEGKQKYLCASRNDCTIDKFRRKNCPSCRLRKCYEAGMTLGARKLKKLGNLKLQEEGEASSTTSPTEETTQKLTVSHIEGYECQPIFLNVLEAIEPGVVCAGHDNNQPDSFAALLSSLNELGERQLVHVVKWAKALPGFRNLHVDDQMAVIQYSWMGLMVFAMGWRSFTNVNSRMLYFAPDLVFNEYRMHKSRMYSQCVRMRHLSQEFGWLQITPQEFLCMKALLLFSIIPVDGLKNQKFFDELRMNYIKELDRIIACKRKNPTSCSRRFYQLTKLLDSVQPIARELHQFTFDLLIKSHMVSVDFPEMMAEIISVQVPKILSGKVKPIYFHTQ
Description: Co-transfection androgen antagonist assay (CV-1 cells, pRShAR, MTV-LUC reporter; AR-wt). The format is cell-based. The settings on record: for IC50: read-out: Potency (IC50, concentration required to reduce the maximal response by 50%).
Source text: The co-transfection assay provides a method for identifying functional ligands (either agonists which mimic, or antagonists which inhibit, the effect of hormones), and quantifying their activity for ligand-responsive receptor proteins. In this regard, the co-transfection assay mimics an in vivo system in the laboratory. Importantly, activity in the co-transfection assay correlates very well with known in vivo activity, such that the co-transfection assay functions as a quantitative predicator of a tested compounds in vivo pharmacology. See, e.g., T. Berger et al. 41 J. Steroid Biochem. Molec.
as §1, §2
as §3, with “cells. […]” for “cells.”

Setting [3] is: CV-1, Table 1, androgen antagonists, relative to 2-Hydroxy-flutamide, read-out: Efficacy (% maximal response relative to 2-Hydroxy-flutamide).
Setting [4] is: Table 2, CV-1 cells AR-wt, read-out: Efficacy, AR-wt.

Take 4-isocymobarbatol: the antimutagenic activity result in assay [1] is on record as “highly active antimutagens”.

Consider `C=C1C=CCC(C)(C)C1Cc1cc(OC)c(Br)cc1OC(C)=O` (stereo not shown) [F], for which the “Efficacy, PR-TI (% maximal response)” value in assay [2] was determined as 53%. Besides, the IC50 came out at 820 nM in assay [2] and 240 nM on androgen receptor (Table 1, androgen antagonists). Also, the Emax on androgen receptor (setting [3]) and on androgen receptor (setting [4]) was 87% each time.

For the compound `O=C1CCCCC1Cc1ccc([N+](=O)[O-])cc1` (stereo not shown) [G, 2-(4'-Nitrophenyl)methylcyclohexan-1-one], the “Efficacy, PR-TI (% maximal response)” value in assay [2] is on record as 98%. Also, the IC50 in assay [2] worked out at 920 nM; on androgen receptor (Table 1, androgen antagonists), 250 nM. Moreover, the Emax at androgen receptor (setting [3]) and on androgen receptor (setting [4]) was 79% in each case.

Turning to `COc1cc(CC2C(C)(C)CC(C)=CC23CC3)c(OC(C)=O)cc1Br` (stereo not shown) [H, 8-(2'-Acetoxy-4'-bromo-5 '-methoxyphenyl)methyl-5,7,7-trimethylspiro[2.51]oct-4-ene], the “Efficacy, PR-TI (% maximal response)” value in assay [2] stood at 26%. Besides, the IC50 came to 160 nM in assay [2] and 250 nM at androgen receptor (Table 1, androgen antagonists). Moreover, the Emax at androgen receptor (setting [3]) and at androgen receptor (setting [4]) was 89% in each case.

As for `C=C1[C@@H](Cc2cc(OC)c(Br)cc2O)C(C)(C)CC[C@]1(C)O` [J, (1S,3S)-1-Hydroxy-2-methylidene-3-(2'-hydroxy-4'-bromo-5'-methoxyphenyl)methyl-1,4,4-trimethylcyclohexane], the “Efficacy, PR-TI (% maximal response)” value in assay [2] is 95%. Also, the IC50 was found to be 850 nM in assay [2] and 300 nM on androgen receptor (Table 1, androgen antagonists). For the same compound, the Emax on androgen receptor (setting [3]) and at androgen receptor (setting [4]) was 85% in each case.

Consider `CC1(C)[C@@H](Br)CC[C@@]2(C)Oc3cc(Br)c(O)cc3C[C@@H]12` [cymobarbatol], for which, in assay [1], the antimutagenic activity entry is “highly active antimutagens”.
